Holding throughout (assay type): functional, cell-based
Experiment [1] has as its system H4. Kind of experiment: Antiproliferative activity against human H4 cells assessed as inhibition of cell growth measured after 72 hrs by CCK-8 assay. Particulars: H4, 72 h.
Experiment [2] deals with U-251. Description: Antiproliferative activity against human U-251MG cells assessed as inhibition of cell growth measured after 72 hrs by CCK-8 assay. Particulars: U-251, 72 h. (Formazan colour is commonly taken as a measure of viable cells.)
The subject of experiment [3] is Hs 683. Kind of experiment: Antiproliferative activity against human Hs 683 cells assessed as inhibition of cell growth measured after 72 hrs by CCK-8 assay. The following applies: Hs 683, 72 h.
Experiment [4] concerns LN-229. Description: Antiproliferative activity against human LN-229 cells assessed as inhibition of cell growth measured after 72 hrs by CCK-8 assay. Particulars: LN-229, 72 h.

The IC50 is the concentration at which inhibition is half-maximal.

Molecules are shown by their SMILES.

`N#CC1(C(=O)NCCc2ccc([N+](=O)[O-])cc2)CC2c3ccccc3C1c1ccccc12` (racemic): the IC50 is 36.9 µM in experiment [1], 48.3 µM in experiment [2], > 80 µM in experiment [3] and 23.8 µM in experiment [4].

Regarding `N#CC1(C(=O)NC2CCN(Cc3ccccc3)CC2)CC2(Br)c3ccccc3C1c1ccccc12` (racemic), the IC50 in experiment [1] was 9.84 µM; in experiment [2], 25.1 µM; in experiment [3], 11.3 µM; in experiment [4], 7.36 µM.

With `Cc1ccc(CCNC(=O)C2(C#N)CC3c4ccccc4C2c2ccccc23)cc1` (racemic), the IC50 in experiment [1] is > 80 µM; in experiment [2] it was > 80 µM; in experiment [3], 39.9 µM; in experiment [4], 60.8 µM.

For `COc1ccc(NC(=O)C2(C#N)CC3c4ccccc4C2c2ccccc23)cc1` (racemic), the IC50 in experiment [1], in experiment [2], in experiment [3] and in experiment [4] was > 80 µM each time.

In the case of `N#CC1(C(=O)NCc2cccc(Cl)c2Cl)CC2c3ccccc3C1c1ccccc12` (racemic), the concentration for half-maximal inhibition (IC50) in experiment [1], in experiment [2], in experiment [3] and in experiment [4] was > 80 µM each time.

`N#CC1(C(=O)NCCc2ccc(F)cc2)CC2(CO)c3ccccc3C1c1ccccc12` (racemic): the IC50 is 30.7 µM in experiment [1], 39.8 µM in experiment [2], 21.8 µM in experiment [3] and 15 µM in experiment [4].

Turning to `N#CC1(C(=O)NCCC2CCN(Cc3ccc(F)cc3)CC2)CC2(Br)c3ccccc3C1c1ccccc12` (racemic), the half-inhibitory concentration (IC50) in experiment [1] stood at 18 µM; in experiment [2], 18.1 µM; in experiment [3], 21.9 µM; in experiment [4], 18.7 µM.

As to `O=C(NCCC1CCN(Cc2ccccc2)CC1)C1(Cl)CC2(Br)c3ccccc3C1c1ccccc12` (racemic), the IC50 in experiment [1] is 19.1 µM; in experiment [2] it was 24.1 µM; in experiment [3] it was 38.7 µM; in experiment [4], 12.4 µM.

As to `CC12CC(C#N)(C(=O)NCCc3ccc(F)cc3)C(c3ccccc31)c1ccccc12` (racemic), the half-inhibitory concentration (IC50) worked out at 22.3 µM in experiment [1], 18.7 µM in experiment [2], 24.6 µM in experiment [3] and 28.9 µM in experiment [4].

In the case of `Cc1ccccc1NC(=O)C1(C#N)CC2c3ccccc3C1c1ccccc12` (racemic), the half-inhibitory concentration (IC50) in experiment [1], in experiment [2], in experiment [3] and in experiment [4] was > 80 µM each time.

For `N#CC1(C(=O)NCCc2ccc(F)cc2)CC2(Br)c3ccccc3C1c1ccccc12` (racemic), the half-inhibitory concentration (IC50) was 15.3 µM in experiment [1], 21.4 µM in experiment [2], 19.8 µM in experiment [3] and 14.6 µM in experiment [4].

Take `N#CC1(C(=O)NCCc2ccccc2F)CC2c3ccccc3C1c1ccccc12` (racemic): the IC50 in experiment [1] is 26 µM; in experiment [2] it was 38.1 µM; in experiment [3], > 80 µM; in experiment [4] it was 49 µM.

As for `CC(=O)C12CC(C#N)(C(=O)NCCc3ccc(F)cc3)C(c3ccccc31)c1ccccc12` (racemic), the IC50 in experiment [1] stood at 24.7 µM; in experiment [2], 18.8 µM; in experiment [3], 20.7 µM; in experiment [4], 29.5 µM.

Take `N#CC1(C(=O)NCCC(=O)Nc2ccc(F)cc2)CC2(Br)c3ccccc3C1c1ccccc12` (racemic): the IC50 was 15.8 µM in experiment [1], 49.8 µM in experiment [2], 12.6 µM in experiment [3] and 14.6 µM in experiment [4].

As to `N#CC1(C(=O)NCCc2cccc(Cl)c2)CC2c3ccccc3C1c1ccccc12` (racemic), the 50% inhibitory concentration (IC50) in experiment [1] was 18.8 µM; in experiment [2] it was 54.3 µM; in experiment [3], > 80 µM; in experiment [4], 36.6 µM.

On to `COc1cc(NC(=O)C2(C#N)CC3c4ccccc4C2c2ccccc23)cc(OC)c1OC` (racemic), for which the 50% inhibitory concentration (IC50) in experiment [1], in experiment [2], in experiment [3] and in experiment [4] was > 80 µM in each case.

In the case of `N#CC1(C(=O)NCCc2ccc3c(c2)OCO3)CC2c3ccccc3C1c1ccccc12` (racemic), the half-maximal inhibitory concentration (IC50) is > 80 µM in experiment [1], > 80 µM in experiment [2], 44 µM in experiment [3] and 36.8 µM in experiment [4].

As for `N#CC1(C(=O)Nc2ccc(N)cc2)CC2c3ccccc3C1c1ccccc12` (racemic), the IC50 in experiment [1] was 61.7 µM; in experiment [2], > 80 µM; in experiment [3], > 80 µM; in experiment [4], > 80 µM.

In the case of `N#CC1(C(=O)NCCCc2ccccc2)CC2(Br)c3ccccc3C1c1ccccc12` (racemic), the concentration for half-maximal inhibition (IC50) in experiment [1] is 49 µM; in experiment [2], 45.8 µM; in experiment [3], > 80 µM; in experiment [4], 19.8 µM.

Regarding `COc1ccc(NC(=O)C2(C#N)CC3c4ccccc4C2c2ccccc23)cc1C` (racemic), the IC50 in experiment [1], in experiment [2], in experiment [3] and in experiment [4] was > 80 µM each time.

For the compound `N#CC1(C(=O)NCCc2ccc(Br)cc2)CC2(Br)c3ccccc3C1c1ccccc12` (racemic), the IC50 in experiment [1] came out at 10.3 µM; in experiment [2], 30 µM; in experiment [3], 8.43 µM; in experiment [4] it was 9.73 µM.

As to `N#CC1(C(=O)NCCc2ccc(F)cc2)CC2c3ccccc3C1c1ccccc12` (racemic), the IC50 in experiment [1] is 35.2 µM; in experiment [2], 52.3 µM; in experiment [3] it was 43.6 µM; in experiment [4] it was 32.5 µM.

On to `N#CC1(C(=O)NCC2CCN(Cc3ccccc3)CC2)CC2(Br)c3ccccc3C1c1ccccc12` (racemic), for which the half-maximal inhibitory concentration (IC50) in experiment [1] is 3.32 µM; in experiment [2], 15.7 µM; in experiment [3], 14.9 µM; in experiment [4], 5.94 µM.

Regarding `N#CC1(C(=O)NCCc2ccccc2F)CC2(Br)c3ccccc3C1c1ccccc12` (racemic), the IC50 in experiment [1], in experiment [2], in experiment [3] and in experiment [4] was > 80 µM in each case.

Regarding `N#CC1(C(=O)NCCS(=O)(=O)Nc2ccccc2)CC2(Br)c3ccccc3C1c1ccccc12` (racemic), the IC50 in experiment [1] is 22.7 µM; in experiment [2] it was 23.2 µM; in experiment [3] it was 15.2 µM; in experiment [4], 26.6 µM.

With `N#CC1(C(=O)NCCSc2ccccc2)CC2(Br)c3ccccc3C1c1ccccc12` (racemic), the IC50 in experiment [1] was 16.9 µM; in experiment [2], 16.8 µM; in experiment [3], 11.6 µM; in experiment [4], 14.4 µM.

Turning to `N#CC1(C(=O)Nc2ccc3c(c2)OCO3)CC2c3ccccc3C1c1ccccc12` (racemic), the IC50 is 20 µM in experiment [1], 72.6 µM in experiment [2], > 80 µM in experiment [3] and 45.5 µM in experiment [4].

On to `N#CC1(C(=O)NCCS(=O)(=O)Nc2ccc(F)cc2)CC2(Br)c3ccccc3C1c1ccccc12` (racemic), for which the IC50 in experiment [1] amounted to 21.9 µM; in experiment [2], 21.2 µM; in experiment [3], 17.8 µM; in experiment [4], 12.7 µM.

Consider `N#CC1(C(=O)Nc2ccc(F)cc2)CC2c3ccccc3C1c1ccccc12` (racemic), for which the IC50 in experiment [1], in experiment [2], in experiment [3] and in experiment [4] was > 80 µM in each case.

Take `N#CC1(C(=O)NCCc2cccc(F)c2)CC2c3ccccc3C1c1ccccc12` (racemic): the IC50 is 50 µM in experiment [1], 40.5 µM in experiment [2], 46.6 µM in experiment [3] and 33 µM in experiment [4].
